Assay results published in paper PMC4839297, “HTS-Driven Discovery of New Chemotypes with West Nile Virus Inhibitory Activity” (Molecules, 2010).
Like-named read-outs stand apart in the source and are kept apart here.

Tests used:
[1] = test system: WNV (NY-99 strain) infection of Vero E6 cells; assay: Dose response assay in CPE based screen (antiviral efficacy); format: cell-based, West Nile virus
Description: (§1) To confirm the activity and to test the cytotoxicity, the top 110 inhibitory compounds were evaluated in a dose response assay using the identical screen.
After reviewing the data from the primary screen, 110 compounds were selected for a dose-response study. The same compound stocks (10 mM in 100% DMSO) were used to select 7 μL of the compounds into a low-volume, 384-well plate. The dose response plates were prepared using a “stacked-plate” format using a 1:2 dilution series for a total of ten concentrations. By using this format, each entire plate represents one of the ten concentrations in the dilution series. A 5 μL aliquot of each of the serial dilution plates was transferred to the assay plates along with an equal volume but separate transfer of controls. With the addition of 20 μL of cells and 5 μL of virus, the final test concentrations for the dose response screen were 30 μM, 15 μM, 7.5 μM, 3.75 μM, 1.875 μM, 0.9375 μM, 0.4688 μM, 0.2344 μM, 0.1172 μM, and 0.0586 μM all at […].
(§2) Cytotoxicity and antiviral efficacy were performed in a dose-response format in parallel. Compounds were serially diluted in complete media (MEM-E) with a 0.5% DMSO final concentration and adding 5 μL to cell plates, identical to the stacked plate method. A ten point, two-fold dilution series of compound concentrations ranging from 30 μM to 0.059 μM were used in the assay. Virus (0.04 MOI) or media was added for antiviral effect or cytotoxicity respectively. The plates were incubated 96 h in a 5% CO2 incubator at 37 °C. Cell viability was measured as stated above. The serially diluted compounds were also used for time of addition studies adding to the infected cells in 384-well plates at -1, 4, 8 and18 h post-infection with WNV (0.02 MOI). The plates were then developed as above 96 h after infection. The EC50 value was calculated for each time of addition point.
(§3) The Z′ value was employed to evaluate the assay’s robustness and was calculated from 1-(3×standard deviation of cell control (σc) + 3* standard deviation of the virus control (σv)/ [mean cell control signal (μc) minus mean virus control signal (μv)]). The signal/background (S/B) was calculated from the mean cell control signal (μc) divided by the mean virus control signal (μv). The signal/noise (S/N) was calculated from mean cell control signal (μc) minus mean virus control signal (μv) divided by the (standard deviation of the cell control signal (σc)^2 […] the standard deviation of the virus control signal (σv)^2)^1/2 [24]. The effective concentration at which the drug inhibited cell death at 50% in the presence of virus (EC50) and the cytotoxicity of the drug alone at 50% (CC50) were calculated using ActivityBase software (IDBS, Inc, Guildford, UK). CPE inhibition (%) and cell viability were calculated as described in elsewhere. The standard curve analysis function in SigmaPlot™ was used to calculate the inhibitory concentration (IC50 and IC50 values) for the protease and titer reduction assays.

[2] = test system: WNV (NY-99 strain) infection of Vero E6 cells; assay: Single dose primary HTS, CPE based (CellTiter-Glo), 384-well; format: cell-based, West Nile virus
[3] = Cytotoxicity in dose-response format (CellTiter-Glo); format: cell-based; conditions: African green monkey, Vero E6 cells (uninfected)
Description: as §1
as §2, with “A ten point, two-fold dilution series of compound concentrations ranging from 30 μM to 0.059 μM were used in the assay.” left out
as §3

[4] = test system: WNV (NY-99 strain) infection of Vero E6 cells; assay: Time of addition assay in dose response format; format: cell-based, West Nile virus; conditions: for EC50 change pattern (time of addition): Table 2; for EC50 change pattern over the course of infection: Table 3, compound added at -1, 4, 8, 18 h post-infection; for EC50: West Nile virus, Vero C1008, 18 h, read-out: EC50 in time of addition assay
Description: The compounds selected by the primary and dose response screening were re-supplied from the suppliers as a solid form except 4 compounds; SMR000394098, SMR000059052, SMR000027739 and SRI-4578, which were not available at that time (Table 1). Time of addition assays were conducted in a dose response format with the 20 compounds. Serially diluted compounds were added to Vero E6 cells at -1, 4, 8 and 18 h post-infection. Luminescent data was calculated (as above) to obtain EC50 values for each compound at each time point of addition.
The EC50 of MPA was within a range of 2.0~5.0 μM regardless of when it was added.
as §2

[5] = test system: WNV progeny virus in Vero E6 cells; assay: Titer reduction assay (TCID50 of progeny virus); format: cell-based, West Nile virus; design: SI50 *: unit not given beside the values; conditions: for SI50 *: Table 3, footnote to * not given; for EC50 / EC90 / inhibition at 15 µM: West Nile virus; for EC50 / EC90: Vero C1008, 48 h; for EC50: read-out: Dose response in Titer reduction EC50; for EC90: read-out: Dose response in Titer reduction EC90; for inhibition at 15 µM: Vero C1008, read-out: inhibition of progeny virus titer
Description: Finally, we employed a titer reduction assay to confirm the antiviral activity of the seven compounds confirmed in the assays. The titer of the progeny virus produced in the presence of the compounds was measured in TCID50 format. […] The titer reduction assay confirmed the antiviral activity of the hit compounds selected through our pathway (Figure 6).
Vero E6 cells were seeded in a 12-well plate in a volume of 1 mL and incubated overnight at 37 °C and 5% CO2. The next day media was aspirated from the cells and they were infected by adsorption of WNV (0.1 MOI) for one hour in 100 μL media. After aspirating the virus and washing the cells with phosphate buffered saline, media was replenished containing compounds at various concentrations. The plates were incubated for 48 h. Progeny virus titer was measured by TCID50 assay in 384-well plate format with 6 wells per dilution of virus. CellTiter-Glo® reagent was employed to determine a cell death which is a sign of infection. A well with a luminescence signal less than the mean of the non-infected control signal, minus 5 times the standard deviation of the control, was regarded as a positive infection. The TCID50 was calculated with the numbers of positive infection and negative infection by the Reed-Muench method.

WNV NS2b-NS3pro = molecular target: T1, WNV NS2b-NS3pro (West Nile virus, UniProt Q9Q6P4); assay: WNV NS2b-NS3pro FRET based enzymatic assay; format: biochemical
T1 construct: A recombinant NS3 protease expressed and purified from E.coli; purchased AnaSpec Inc (CA, USA); host or cells: E. coli
T1 sequence (Q9Q6P4 1506-1683 limits assumed, looked up): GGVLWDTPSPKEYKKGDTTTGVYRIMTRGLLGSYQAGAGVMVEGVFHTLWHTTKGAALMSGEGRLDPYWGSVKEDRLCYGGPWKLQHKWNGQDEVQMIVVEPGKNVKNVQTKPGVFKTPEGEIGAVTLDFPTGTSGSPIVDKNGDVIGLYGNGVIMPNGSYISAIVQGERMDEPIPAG
T1 sequence (Q9Q6P4 1423-1470 partner limits assumed, looked up): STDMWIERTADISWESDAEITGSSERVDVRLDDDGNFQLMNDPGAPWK
From the text: The results from the time of addition assay led us to examine the NS3 protease as a potential target of the hit compounds. NS3 protease is an important enzyme responsible for the maturation of viral proteins at early stage during the replication of virus in the host cells. We tested the compounds for an inhibitory activity on NS3 protease using a FRET based, in vitro, enzymatic assay.
A recombinant NS3 protease expressed and purified from E.coli with the cofactor NS2b (residues 49-96) and a fluorescence resonance energy transfer (FRET) based assay kit were purchased from AnaSpec Inc (CA, USA). We followed an assay protocol published on line at PubChem by University of Pittsburgh Molecular Library Screening Center (http://www.ncbi.nlm.nih.gov/, AID:577). The assay was performed in a 384-well format with 10 ng/well of NS2b-NS3pro enzyme.

[6] = Table 1, CPE based dose response, Vero E6, WNV 0.04 MOI, 96 h, read-out: EC50
[7] = Table 3, Vero E6, read-out: Dose response in CPE based CC50
[8] = West Nile virus, Vero C1008, 96 h, Table 1, CPE based dose response, Vero E6, WNV 0.04 MOI, 96 h
[9] = West Nile virus, Vero C1008, read-out: Dose response in CPE based EC50, Table 3, Vero E6, WNV
[10] = Table 1, Vero E6 without virus, 96 h, read-out: CC50

## CC(=O)OC[C@H]1O[C@@H](n2ncc(=O)[nH]c2=O)[C@H](OC(C)=O)[C@@H]1OC(C)=O [SMR000059052]
[1]; Table 1
  SI50 (Selectivity Index 50, ratio of CC50 to EC50): >5.0
[1]; [6]
  EC50: 20 µM

## CC(C)C[C@H](NC(=O)c1nc[nH]c1C(=O)N1CCN(C(=O)OC(C)(C)C)CC1)C(=O)OC(C)(C)C [SMR000394098]
[1]; Table 1
  SI50 (Selectivity Index 50, ratio of CC50 to EC50): >5.1
[1]; [6]
  EC50: 19.6 µM

## COc1c(C)c2c(c(O)c1C/C=C(\C)CCC(=O)O)C(=O)OC2 [MPA, mycophenolic acid, reference compound]
[2]; West Nile virus, Vero C1008, read-out: inhibition on average in primary screen
  inhibition at 5 µg/mL: 44.6%
[2]; assay optimization, MOI 0.04, 384-well
  protection: 30%
[3]; [7]
  CC50 at 96 h: > 30 µM
[4]
  EC50 change pattern (time of addition): No Change : EC50_1hr ≈ EC50_4hr ≈ EC50_8hr ≈ EC50_18hr
  EC50 change pattern over the course of infection: no change
  EC50: 2 to 5 µM
[5]
  SI50 *: >1000
  EC50: 0.03 µM
  EC90: 0.94 µM

## O=C(O)c1ccccc1Nc1ccccc1 [N-Phenylanthranilic acid, reference compound]
WNV NS2b-NS3pro
  anti-NS2b-NS3pro activity (in words): could not detect any significant activity

## Cc1oc(-c2ccccc2Cl)nc1CSCC(=O)N1CCCC1 [SMR000027739]
[1]; Table 1
  SI50 (Selectivity Index 50, ratio of CC50 to EC50): >3.4
[1]; [6]
  EC50: 29.6 µM

## COc1cccc2c(=O)n3c(nc12)/C(=C/c1ccc2c(c1)OCO2)CC3 [SRI-22003]
[1]; Table 1
  SI50 (Selectivity Index 50, ratio of CC50 to EC50): >8.2
[1]; [8]
  EC50: 12.2 µM
[1]; [9]
  EC50: 12.2 µM
[3]; [10]
  CC50 at 96 h: > 100 µM
[3]; [7]
  CC50 at 96 h: > 30 µM
[4]
  EC50 change pattern (time of addition): Increase: EC50_1hr ≈ EC50_4hr ≤ EC50_8hr < EC50_18hr
  EC50 change pattern over the course of infection: Increase
[5]
  SI50 *: >6
  EC50: 4.7 µM
  EC90: 5.13 µM
  inhibition at 15 µM: 98.8%

## COc1cc(-c2ccc(Nc3ccccc3C(=O)O)c(OC)c2)ccc1Nc1ccccc1C(=O)O [SRI-19093, Redoxal]
[1]; Table 1
  SI50 (Selectivity Index 50, ratio of CC50 to EC50): >2.4
[1]; [8]
  EC50: 41 µM
[1]; [9]
  EC50: 41 µM
[3]; [10]
  CC50 at 96 h: > 100 µM
[3]; [7]
  CC50 at 96 h: > 30 µM
[4]
  EC50 change pattern over the course of infection: Increase
  EC50: 3.2 to 6.4 µM
WNV NS2b-NS3pro
  anti-NS2b-NS3pro activity (in words): inhibited viral protease in vitro
[5]
  SI50 *: >200
  EC50: 0.13 µM
  EC90: 2.14 µM
  inhibition at 15 µM: 93.7%

## C[C@@H]1Cc2ccccc2N1S(=O)(=O)c1cccc(C(=O)N2CCN(c3ncccn3)CC2)c1 [SMR000370276]
[1]; Table 1
  SI50 (Selectivity Index 50, ratio of CC50 to EC50): >5.3
[1]; [8]
  EC50: 18.9 µM
[1]; [9]
  EC50: 18.9 µM
[3]; [10]
  CC50 at 96 h: > 100 µM
[3]; [7]
  CC50 at 96 h: > 30 µM
[4]
  EC50 change pattern (time of addition): Increase: EC50_1hr ≈ EC50_4hr ≤ EC50_8hr < EC50_18hr
  EC50 change pattern over the course of infection: Increase
[5]
  SI50 *: >5
  EC90: 6.07 µM
  inhibition at 15 µM: 98.8%
[5]; Vero E6, WNV 0.1 MOI, 48 h post-infection
  Dose response in Titer reduction EC50: No solution

## O=C(O)c1ccccc1Nc1ccc([N+](=O)[O-])cc1 [SMR000171908]
[1]; Table 1
  SI50 (Selectivity Index 50, ratio of CC50 to EC50): >3.3
[1]; [8]
  EC50: 30.4 µM
[1]; [9]
  EC50: 30.4 µM
[3]; [10]
  CC50 at 96 h: > 100 µM
[3]; [7]
  CC50 at 96 h: > 30 µM
[4]
  EC50 change pattern (time of addition): Increase: EC50_1hr ≈ EC50_4hr ≤ EC50_8hr < EC50_18hr
  EC50 change pattern over the course of infection: Increase
[5]
  SI50 *: >25
  EC50: 1.16 µM
  EC90: 6.73 µM
